Several values for one entry are separate records, joined by “and”; a condition that tells them apart may be missing. Equal values may be shown once. Inconclusive results and toxic doses are left out. Cut-off read from the data, not from the text of the source: active = T/C of 150% or more; inactive = T/C below 125%.
System: L1210 leukemia ip in BDF1 mice, survival T/C
Assay: NCI In Vivo Anticancer Drug Screen. Data for tumor model L1210 Leukemia (intraperitoneal) in B6D2F1 (BDF1) mice
Settings: endpoint: mean survival time, higher = longer survival
How it was run: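 Mice bearing the transplanted tumor received compound or vehicle. Survival of the treated group was divided by that of the vehicle-treated control group to give the ratio.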

[1] = dose: 100.0 mg/kg/injection, schedule: Q01DX001 (ip), vehicle: carboxymethylcellulose (CMC)
[2] = dose: 200.0 mg/kg/injection, schedule: Q01DX001 (ip), vehicle: carboxymethylcellulose (CMC)
[3] = dose: 400.0 mg/kg/injection, schedule: Q01DX001 (ip), vehicle: carboxymethylcellulose (CMC)
[4] = dose: 100.0 mg/kg/injection, schedule: Q01DX009 (ip), vehicle: Klucel (hydroxypropylcellulose) (HPC)
[5] = dose: 100.0 mg/kg/injection, schedule: Q04DX003 (ip), vehicle: Klucel (hydroxypropylcellulose) (HPC)
[6] = dose: 200.0 mg/kg/injection, schedule: Q01DX009 (ip), vehicle: Klucel (hydroxypropylcellulose) (HPC)
[7] = dose: 200.0 mg/kg/injection, schedule: Q04DX003 (ip), vehicle: Klucel (hydroxypropylcellulose) (HPC)
[8] = dose: 400.0 mg/kg/injection, schedule: Q01DX009 (ip), vehicle: Klucel (hydroxypropylcellulose) (HPC)
[9] = dose: 400.0 mg/kg/injection, schedule: Q04DX003 (ip), vehicle: Klucel (hydroxypropylcellulose) (HPC)
[10] = dose: 50.0 mg/kg/injection, schedule: Q01DX009 (ip), vehicle: Klucel (hydroxypropylcellulose) (HPC)
[11] = dose: 100.0 mg/kg/injection, schedule: Q01DX009 (ip), vehicle: saline with Tween-80
[12] = dose: 100.0 mg/kg/injection, schedule: Q04DX003 (ip), vehicle: saline with Tween-80
[13] = dose: 200.0 mg/kg/injection, schedule: Q01DX009 (ip), vehicle: saline with Tween-80
[14] = dose: 200.0 mg/kg/injection, schedule: Q04DX003 (ip), vehicle: saline with Tween-80
[15] = dose: 400.0 mg/kg/injection, schedule: Q01DX009 (ip), vehicle: saline with Tween-80
[16] = dose: 400.0 mg/kg/injection, schedule: Q04DX003 (ip), vehicle: saline with Tween-80
[17] = dose: 100.0 mg/kg/injection, schedule: Q04DX002 (ip), vehicle: Klucel (hydroxypropylcellulose) (HPC)
[18] = dose: 200.0 mg/kg/injection, schedule: Q04DX002 (ip), vehicle: Klucel (hydroxypropylcellulose) (HPC)
[19] = dose: 400.0 mg/kg/injection, schedule: Q04DX002 (ip), vehicle: Klucel (hydroxypropylcellulose) (HPC)
[20] = dose: 100.0 mg/kg/injection, schedule: Q01DX001 (ip), vehicle: Klucel (hydroxypropylcellulose) (HPC)

Measured: T/C

Cc1ccc(CCNc2ncnc(Cl)c2N)cc1
inactive: dose: 50.0 mg/kg/injection, schedule: Q01DX001 (ip), vehicle: other 88 % of control | dose: 100.0 mg/kg/injection, schedule: Q01DX001 (ip), vehicle: other 92 % of control

COC1C(O)=C2C(=O)OC(C)(O)/C=C/C=C\C=C/C=C/C(c3ccccc3)NC(=O)/C=C/C=C/C=C/C=C/C2(C)C1O (stereo unspecified)
inactive: dose: 2.5 mg/kg/injection, schedule: Q01DX009 (ip), vehicle: saline 94 % of control | dose: 5.0 mg/kg/injection, schedule: Q01DX009 (ip), vehicle: saline 100 % of control | dose: 10.0 mg/kg/injection, schedule: Q01DX009 (ip), vehicle: saline 95 % of control

O=[N+]([O-])c1cc2cc(Br)ccc2o1
inactive: dose: 12.5 mg/kg/injection, schedule: Q04DX002 (ip), vehicle: Klucel (hydroxypropylcellulose) (HPC) 102 % of control | dose: 25.0 mg/kg/injection, schedule: Q04DX002 (ip), vehicle: Klucel (hydroxypropylcellulose) (HPC) 106 % of control | dose: 50.0 mg/kg/injection, schedule: Q04DX002 (ip), vehicle: Klucel (hydroxypropylcellulose) (HPC) 97 % of control

CCCCCCCCCCCC[N+](C)(C)Cc1cc(=O)c(O)co1
inactive: dose: 12.5 mg/kg/injection, schedule: Q04DX002 (ip), vehicle: saline 94 % of control | dose: 25.0 mg/kg/injection, schedule: Q04DX002 (ip), vehicle: saline 105 % of control | dose: 50.0 mg/kg/injection, schedule: Q04DX002 (ip), vehicle: saline 115 % of control

N#CCCC(CCC#N)(S(=O)(=O)Cc1ccccc1)S(=O)(=O)Cc1ccccc1
inactive: [1] 101 % of control | [2] 101 % of control | [3] 89 % of control

CC(Br)(C(CC(=O)C1CC1)c1ccccc1)[N+](=O)[O-] (stereo unspecified)
inactive: dose: 25.0 mg/kg/injection, schedule: Q01DX009 (ip), vehicle: other 93 % of control | dose: 25.0 mg/kg/injection, schedule: Q04DX003 (ip), vehicle: other 100 % of control | dose: 50.0 mg/kg/injection, schedule: Q01DX001 (ip), vehicle: carboxymethylcellulose (CMC) 108 % of control | dose: 50.0 mg/kg/injection, schedule: Q01DX009 (ip), vehicle: other 89 % of control and 90 % of control | dose: 50.0 mg/kg/injection, schedule: Q04DX003 (ip), vehicle: other 96 % of control | [1] 90 % of control | dose: 100.0 mg/kg/injection, schedule: Q01DX009 (ip), vehicle: other 91 % of control | dose: 100.0 mg/kg/injection, schedule: Q04DX003 (ip), vehicle: other 93 % of control and 103 % of control | [2] 92 % of control | [3] 95 % of control

COC(=O)/C=C/CBr
inactive: dose: 0.2 mg/kg/injection, schedule: Q01DX015 (ip), vehicle: carboxymethylcellulose (CMC) 91 % of control | dose: 4.0 mg/kg/injection, schedule: Q01DX015 (ip), vehicle: carboxymethylcellulose (CMC) 109 % of control | dose: 5.0 mg/kg/injection, schedule: Q01DX001 (ip), vehicle: carboxymethylcellulose (CMC) 95 % of control | dose: 8.0 mg/kg/injection, schedule: Q01DX015 (ip), vehicle: carboxymethylcellulose (CMC) 91 % of control | dose: 10.0 mg/kg/injection, schedule: Q01DX001 (ip), vehicle: carboxymethylcellulose (CMC) 93 % of control | dose: 16.0 mg/kg/injection, schedule: Q01DX015 (ip), vehicle: carboxymethylcellulose (CMC) 100 % of control and 102 % of control | dose: 32.0 mg/kg/injection, schedule: Q01DX015 (ip), vehicle: carboxymethylcellulose (CMC) 100 % of control

c1ccc2[nH]c(/N=N/c3nc4ccccc4[nH]3)nc2c1
inactive: [4] 95 % of control | [5] 94 % of control | [6] 105 % of control | [7] 98 % of control | [8] 87 % of control | [9] 98 % of control

CC(=O)Nc1c(C)cc(C)cc1C
inactive: [10] 105 % of control | [4] 106 % of control | [5] 96 % of control | [6] 103 % of control | [7] 102 % of control | [8] 103 % of control | [9] 104 % of control

C=CCNC(=S)Nc1ccc(OC(=O)NC2CCCCC2)cc1
inactive: [11] 110 % of control | [12] 110 % of control | [13] 106 % of control | [14] 113 % of control | [15] 102 % of control | [16] 98 % of control

O=C(Cn1ccc(=O)[nH]c1=O)c1ccc(Cl)s1
inactive: [11] 100 % of control | [12] 96 % of control | [13] 97 % of control | [14] 98 % of control | [15] 91 % of control | [16] 104 % of control

COc1ccc(C(=O)NC(SC)C(N)=O)cc1 (stereo unspecified)
inactive: [17] 90 % of control | [18] 101 % of control | [19] 93 % of control

CC(NC(=O)c1ccccc1)C(=O)O (stereo unspecified)
inactive: [10] 110 % of control | [4] 91 % of control | [17] 90 % of control | [18] 108 % of control | [19] 93 % of control

O=C(Nc1ccccc1O)c1ccc(Cl)c(Cl)c1
inactive: [4] 100 % of control | [6] 107 % of control | [8] 102 % of control

COP(=O)(O)Oc1ccccc1
inactive: dose: 87.5 mg/kg/injection, schedule: Q01DX009 (ip), vehicle: saline with Tween-80 100 % of control | dose: 175.0 mg/kg/injection, schedule: Q01DX009 (ip), vehicle: saline with Tween-80 100 % of control

O=C1C(Cl)=CC(Cl)=C/C1=N/Cl
inactive: dose: 25.0 mg/kg/injection, schedule: Q01DX001 (ip), vehicle: Klucel (hydroxypropylcellulose) (HPC) 110 % of control | dose: 50.0 mg/kg/injection, schedule: Q01DX001 (ip), vehicle: Klucel (hydroxypropylcellulose) (HPC) 107 % of control | [20] 95 % of control and 100 % of control

Cc1ccc(Nc2nc(N)nc(N)c2Cl)cc1
inactive: dose: 50.0 mg/kg/injection, schedule: Q01DX009 (ip), vehicle: saline with Tween-80 94 % of control | [11] 91 % of control

CC1=CCCCC1O (stereo unspecified)
inactive: dose: 100.0 mg/kg/injection, schedule: Q04DX002 (ip), vehicle: saline with Tween-80 93 % of control | dose: 200.0 mg/kg/injection, schedule: Q04DX002 (ip), vehicle: saline with Tween-80 96 % of control | dose: 400.0 mg/kg/injection, schedule: Q04DX002 (ip), vehicle: saline with Tween-80 93 % of control

CC(C)CCC(O)c1c[nH]c(=O)[nH]c1=O (stereo unspecified)
inactive: [5] 105 % of control | [7] 105 % of control | [9] 94 % of control

C[As](C)Sc1ncccn1
inactive: dose: 6.25 mg/kg/injection, schedule: Q01DX009 (ip), vehicle: Klucel (hydroxypropylcellulose) (HPC) 100 % of control | dose: 12.5 mg/kg/injection, schedule: Q01DX009 (ip), vehicle: Klucel (hydroxypropylcellulose) (HPC) 103 % of control | dose: 12.5 mg/kg/injection, schedule: Q04DX003 (ip), vehicle: Klucel (hydroxypropylcellulose) (HPC) 98 % of control | dose: 25.0 mg/kg/injection, schedule: Q04DX003 (ip), vehicle: Klucel (hydroxypropylcellulose) (HPC) 95 % of control

CNC(=O)Nc1nnnc2ccccc12
inactive: dose: 25.0 mg/kg/injection, schedule: Q04DX003 (ip), vehicle: saline with Tween-80 92 % of control | dose: 50.0 mg/kg/injection, schedule: Q04DX003 (ip), vehicle: saline with Tween-80 94 % of control | [12] 89 % of control

CC(=O)OC(C)C(=O)Nc1ccccc1 (stereo unspecified)
inactive: [20] 93 % of control | dose: 200.0 mg/kg/injection, schedule: Q01DX001 (ip), vehicle: Klucel (hydroxypropylcellulose) (HPC) 89 % of control | dose: 400.0 mg/kg/injection, schedule: Q01DX001 (ip), vehicle: Klucel (hydroxypropylcellulose) (HPC) 96 % of control

C[N+](C)(C)c1cc2c(nn1)Nc1ccccc1S2
inactive: dose: 50.0 mg/kg/injection, schedule: Q01DX001 (ip), vehicle: saline 123 % of control | dose: 100.0 mg/kg/injection, schedule: Q01DX001 (ip), vehicle: saline 116 % of control

CC(=O)Oc1cccc(C#N)c1
inactive: [12] 98 % of control | [14] 107 % of control | [16] 98 % of control

CCCCC(=O)NC(=O)c1ccccc1
inactive: [11] 96 % of control | [12] 101 % of control | [13] 96 % of control | [14] 92 % of control | [15] 93 % of control | [16] 103 % of control

— PubChem BioAssay AID248 (DTP/NCI, 2004)
